Data reported in patent US20100317850A1 (priority 2008, published 2010).

system: Aβ42 production; experiment: Quantification of Aβ peptide in culture of neurons from rat fetus brain (Aβ ELISA); format: cell-based; settings: Neuron, 72 h; rat primary neuronal culture (cerebral cortex, embryonic day 18 Wistar rats); medium collected three days after addition of the compound; Aβx-42 ELISA; read-out: Aβ42 production reducing effect IC50
Method in brief: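 Primary cortical neurons from embryonic day 18 Wistar rats were cultured 4 days, then exposed to compound in Neurobasal/B27 without 2-ME, final DMSO ≤1%. After three days, medium was collected and Aβx-42 measured undiluted by sandwich ELISA.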

Row | SMILES | IC50
1 | CCO[C@H]1C[C@H]2CSC(N)=N[C@@]2(c2cc(NC(=O)c3ccc(C#N)cn3)ccc2F)C1 (relative stereo) [Example 89, (+)-N-[3-((4aR*,6S*,7aS*)-2-amino-6-ethoxy-4a,5,6,7-tetrahydro-4H-cyclopenta[d][1,3]thiazin-7a-yl)-4-fluorophenyl]-5-cyanopyridine-2-carboxamide] | 3.2 nM
2 | CCO[C@@H]1C[C@H]2CSC(N)=N[C@@]2(c2cc(NC(=O)c3ccc(C#N)cn3)ccc2F)C1 (relative stereo) [Example 90, (+)-N-[3-((4aR*,6R*,7aS*)-2-amino-6-ethoxy-4a,5,6,7-tetrahydro-4H-cyclopenta[d][1,3]thiazin-7a-yl)-4-fluorophenyl]-5-cyanopyridine-2-carboxamide] | 2.5 nM
3 | N#Cc1ccc(C(=O)Nc2ccc(F)c([C@]34C[C@H](F)C[C@H]3CSC(N)=N4)c2)nc1 (relative stereo) [Example 91, (+)-N-[3-((4aR*,6R*,7aS*)-2-amino-6-fluoro-4a,5,6,7-tetrahydro-4H-cyclopenta[d][1,3]thiazin-7a-yl)-4-fluorophenyl]-5-cyanopyridine-2-carboxamide] | 1.4 nM
4 | CO[C@H]1C[C@H]2CSC(N)=N[C@@]2(c2cc(NC(=O)c3cnc(C(F)F)cn3)ccc2F)C1 (relative stereo) [Example 92, (+)-N-[3-((4aR*,6S*,7aS*)-2-amino-6-methoxy-4a,5,6,7-tetrahydro-4H-cyclopenta[d][1,3]thiazin-7a-yl)-4-fluorophenyl]-5-difluoromethylpyrazine-2-carboxamide] | 5 nM
5 | CO[C@@H]1C[C@H]2CSC(N)=N[C@@]2(c2cc(NC(=O)c3cnc(C(F)F)cn3)ccc2F)C1 (relative stereo) [Example 93, (+)-N-[3-((4aR*,6R*,7aS*)-2-amino-6-methoxy-4a,5,6,7-tetrahydro-4H-cyclopenta[d][1,3]thiazin-7a-yl)-4-fluorophenyl]-5-difluoromethylpyrazine-2-carboxamide] | 3 nM
6 | N#Cc1ccc(C(=O)Nc2ccc(F)c([C@]34CC(F)(F)C[C@H]3CSC(N)=N4)c2)nc1 (relative stereo) [Example 94, (+)-N-[3-((4aR*,7aS*)-2-amino-6,6-difluoro-4a,5,6,7-tetrahydro-4H-cyclopenta[d][1,3]thiazin-7a-yl)-4-fluorophenyl]-5-cyanopyridine-2-carboxamide] | 2 nM
7 | CO[C@@H]1C[C@H]2CSC(N)=N[C@@]2(c2cc(NC(=O)c3cnc(OC(F)F)cn3)ccc2F)C1 (relative stereo) [Example 95] | 1 nM
8 | CO[C@@H]1C[C@H]2CSC(N)=N[C@@]2(c2cc(NC(=O)c3cnc(OCF)cn3)ccc2F)C1 (relative stereo) [Example 96, (+)-N-[3-((4aR*,6R*,7aS*)-2-amino-6-methoxy-4a,5,6,7-tetrahydro-4H-cyclopenta[d][1,3]thiazin-7a-yl)-4-fluorophenyl]-5-fluoromethoxypyrazine-2-carboxamide] | 1 nM
9 | NC1=N[C@@]2(c3cc(NC(=O)c4cnc(OC(F)F)cn4)ccc3F)C[C@H](F)C[C@H]2CS1 (relative stereo) [Example 98, (+)-N-[3-((4aR*,6R*,7aS*)-2-amino-6-fluoro-4a,5,6,7-tetrahydro-4H-cyclopenta[d][1,3]thiazin-7a-yl)-4-fluorophenyl]-5-difluoromethoxypyrazine-2-carboxamide] | 1 nM
10 | CO[C@@H]1C[C@H]2CSC(N)=N[C@@]2(c2cc(NC(=O)c3ccc(Cl)cn3)ccc2F)C1 (relative stereo) [Example 99, (+)-N-[3-((4aR*,6R*,7aS*)-2-amino-6-methoxy-4a,5,6,7-tetrahydro-4H-cyclopenta[d][1,3]thiazin-7a-yl)-4-fluorophenyl]-5-chloropyridine-2-carboxamide] | 1 nM
11 | CO[C@@H]1C[C@H]2CSC(N)=N[C@@]2(c2cc(NC(=O)c3ccc(OC(F)F)cn3)ccc2F)C1 (relative stereo) [Example 100, (+)-N-[3-((4aR*,6R*,7aS*)-2-amino-6-methoxy-4a,5,6,7-tetrahydro-4H-cyclopenta[d][1,3]thiazin-7a-yl)-4-fluorophenyl]-5-difluoromethoxypyridine-2-carb oxamide] | 2 nM
12 | CCCCO[C@@H]1C[C@H]2CSC(N)=N[C@@]2(c2cc(NC(=O)c3ccc(C#N)cn3)ccc2F)C1 (relative stereo) [Example 108, (+)-N-[3-((4aR*,6R*,7aS*)-2-amino-6-butoxy-4a,5,6,7-tetrahydro-4H-cyclopenta[d][1,3]thiazin-7a-yl)-4-fluorophenyl]-5-cyanopyridine-2-carboxamide] | 1 nM
13 | CCCCO[C@H]1C[C@H]2CSC(N)=N[C@@]2(c2cc(NC(=O)c3ccc(C#N)cn3)ccc2F)C1 (relative stereo) [Example 109, (+)-N-[3-((4aR*,6S*,7aS*)-2-amino-6-butoxy-4a,5,6,7-tetrahydro-4H-cyclopenta[d][1,3]thiazin-7a-yl)-4-fluorophenyl]-5-cyanopyridine-2-carboxamide] | 1.8 nM
14 | N#Cc1ccc(C(=O)Nc2ccc(F)c([C@]34C[C@@H](F)C[C@H]3CSC(N)=N4)c2)nc1 (relative stereo) [Example 110, (+)-N-[3-((4aR*,6S*,7aS*)-2-amino-6-fluoro-4a,5,6,7-tetrahydro-4H-cyclopenta[d][1,3]thiazin-7a-yl)-4-fluorophenyl]-5-cyanopyridine-2-carboxamide] | 5 nM
15 | N#Cc1ccc(C(=O)Nc2ccc(F)c([C@]34CCO[C@H](CF)[C@H]3CSC(N)=N4)c2)nc1 (relative stereo) [Example 143, N-[3-((4aS*,5S*,8aS*)-2-amino-5-fluoromethyl-4a,5,7,8-tetrahydro-4H-6-oxa-3-thia-1-azanaphthalen-8a-yl)-4-fluorophenyl]-5-cyanopyridine-2-carboxamide] | 16 nM
16 | NC1=N[C@@]2(c3cc(NC(=O)c4cnc(OCF)cn4)ccc3F)CCO[C@H](CF)[C@H]2CS1 (relative stereo) [Example 144, N-[3-((4aS*,5S*,8aS*)-2-amino-5-fluoromethyl-4a,5,7,8-tetrahydro-4H-6-oxa-3-thia-1-azanaphthalen-8a-yl)-4-fluorophenyl]-5-fluoromethoxypyrazine-2-carboxamide] | 11 nM
17 | NC1=N[C@@]2(c3cc(NC(=O)c4cnc(OC(F)F)cn4)ccc3F)CCO[C@H](CF)[C@H]2CS1 (relative stereo) [Example 145, N-[3-((4aS*,5S*,8aS*)-2-amino-5-fluoromethyl-4a,5,7,8-tetrahydro-4H-6-oxa-3-thia-1-azanaphthalen-8a-yl)-4-fluorophenyl]-5-difluoromethoxypyrazine-2-carboxamide] | 3 nM
18 | NC1=N[C@@]2(c3cc(NC(=O)c4cnc(C(F)F)cn4)ccc3F)CCO[C@H](CF)[C@H]2CS1 (relative stereo) [Example 146, N-[3-((4aS*,5S*,8aS*)-2-amino-5-fluoromethyl-4a,5,7,8-tetrahydro-4H-6-oxa-3-thia-1-azanaphthalen-8a-yl)-4-fluorophenyl]-5-difluoromethylpyrazine-2-carboxamide] | 32 nM
19 | NC1=N[C@@]2(c3cc(NC(=O)c4ccc(OC(F)F)cn4)ccc3F)CCO[C@H](CF)[C@H]2CS1 (relative stereo) [Example 147, N-[3-((4aS*,5S*,8aS*)-2-amino-5-fluoromethyl-4a,5,7,8-tetrahydro-4H-6-oxa-3-thia-1-azanaphthalen-8a-yl)-4-fluorophenyl]-5-difluoromethoxypyridine-2-carboxamide] | 12 nM
20 | NC1=N[C@@]2(c3cc(NC(=O)c4ccc(Cl)cn4)ccc3F)CCO[C@H](CF)[C@H]2CS1 (relative stereo) [Example 148, N-[3-((4aS*,5S*,8aS*)-2-amino-5-fluoromethyl-4a,5,7,8-tetrahydro-4H-6-oxa-3-thia-1-azanaphthalen-8a-yl)-4-fluorophenyl]-5-chloropyridine-2-carboxamide] | 9 nM
21 | NC1=N[C@@]2(c3cc(NC(=O)c4ccc(C(F)(F)F)cn4)ccc3F)COC[C@H]2CS1 (relative stereo) [Example 165, N-[3-((4aS*,7aS*)-2-amino-4a,5-dihydro-4H-furo[3,4-d][1,3]thiazin-7a-yl)-4-fluorophenyl]-5-trifluoromethylpyridine-2-carboxamide] | 12 nM
22 | NC1=N[C@@]2(c3cc(NC(=O)c4ccc(Br)cn4)ccc3F)COC[C@H]2CS1 (relative stereo) [Example 166, N-[3-((4aS*,7aS*)-2-amino-4a,5-dihydro-4H-furo[3,4-d][1,3]thiazin-7a-yl)-4-fluorophenyl]-5-bromopyridine-2-carboxamide] | 4 nM
23 | NC1=N[C@@]2(c3cc(NC(=O)c4ccc(OC(F)F)cn4)ccc3F)COC[C@H]2CS1 (relative stereo) [Example 167, N-[3-((4aS*,7aS*)-2-amino-4a,5-dihydro-4H-furo[3,4-d][1,3]thiazin-7a-yl)-4-fluorophenyl]-5-difluoromethoxypyridine-2-carboxamide] | 6 nM
24 | CO[C@@H]1CC[C@H]2CSC(N)=N[C@@]2(c2cc(NC(=O)c3ccc(C#N)cn3)ccc2F)C1 (relative stereo) [Example 202, N-[3-((4aR*,7R*,8aS*)-2-amino-7-methoxy-4,4a,5,6,7,8-hexahydrobenzo[d][1,3]thiazin-8a-yl)-4-fluorophenyl]-5-cyanopyridine-2-carboxamide] | 3 nM
25 | CO[C@H]1CC[C@]2(c3cc(NC(=O)c4ccc(C#N)cn4)ccc3F)N=C(N)SC[C@@H]2C1 (relative stereo) [Example 204, N-[3-((4aR*,6S*,8aS*)-2-amino-6-methoxy-4,4a,5,6,7,8-hexahydrobenzo[d][1,3]thiazin-8a-yl)-4-fluorophenyl]-5-cyanopyridine-2-carboxamide] | 23 nM
26 | CO[C@@H]1CC[C@]2(c3cc(NC(=O)c4ccc(C#N)cn4)ccc3F)N=C(N)SC[C@@H]2C1 (relative stereo) [Example 206, N-[3-((4aR*,6R*,8aS*)-2-amino-6-methoxy-4,4a,5,6,7,8-hexahydrobenzo[d][1,3]thiazin-8a-yl)-4-fluorophenyl]-5-cyanopyridine-2-carboxamide] | 2 nM
